# Measurements reported in patent US9169224B2, “Piperazinyl and piperidinyl ureas as modulators of fatty acid amide hydrolase” (Janssen Pharmaceutica NV, priority 2004, dated 2015).
# Molecular target: FAAH (Homo sapiens (Human), UniProt O00519)
# Test: Assay Method 1: FAAH assay, T84 cell homogenate, 3H-anandamide hydrolysis
# Assay type: biochemical
# Conditions: 3H-AEA tracer 200 nM, 1 h at rt
# Description: T84 frozen pellets (contents of 1-4×15 cm culture dishes) were homogenized in 300 mL of FAAH assay buffer (125 mM Tris, 1 mM EDTA, 0.2% glycerol, 0.02% Triton X-100, 0.4 mM Hepes, pH 9). The assay mixture was prepared from 50 μL of the cell homogenate, 10 μL of the test compound, and 40 μL of anandamide [1-3H-ethanolamine] (^3H-AEA; Perkin-Elmer, 10.3 Ci/mmol), which was added last, for a final tracer concentration of 200 nM. The reaction mixture was incubated at rt for 1 hour (h). During the incubation, 96-well Multiscreen filter plates (catalog number MAFCNOB50; Millipore, Bedford, Mass., USA) were loaded with 25 μL of activated charcoal (Multiscreen column loader, catalog number MACL09625, Millipore) and washed once with 100 μL of MeOH. Also during the incubation, 96-well DYNEX MicroLite plates (catalog number NL510410) were loaded with 100 μL of MicroScint40 (catalog number 6013641, Packard Bioscience, Meriden, Conn., USA). After the 1 h incubation, 60 μL of the reaction mixture were transferred to the charcoal plates, which were then assembled on top of the DYNEX plates using Centrifuge Alignment Frames (catalog number MACF09604, Millipore). The unbound, labeled ethanolamine was centrifuged through to the bottom plate (5 min at 2000 rpm), which was preloaded with the scintillant, as described above. The plates were sealed and left at rt for 1 h before counting on a Hewlett Packard TopCount.
# Chain of FAAH (O00519 whole entry): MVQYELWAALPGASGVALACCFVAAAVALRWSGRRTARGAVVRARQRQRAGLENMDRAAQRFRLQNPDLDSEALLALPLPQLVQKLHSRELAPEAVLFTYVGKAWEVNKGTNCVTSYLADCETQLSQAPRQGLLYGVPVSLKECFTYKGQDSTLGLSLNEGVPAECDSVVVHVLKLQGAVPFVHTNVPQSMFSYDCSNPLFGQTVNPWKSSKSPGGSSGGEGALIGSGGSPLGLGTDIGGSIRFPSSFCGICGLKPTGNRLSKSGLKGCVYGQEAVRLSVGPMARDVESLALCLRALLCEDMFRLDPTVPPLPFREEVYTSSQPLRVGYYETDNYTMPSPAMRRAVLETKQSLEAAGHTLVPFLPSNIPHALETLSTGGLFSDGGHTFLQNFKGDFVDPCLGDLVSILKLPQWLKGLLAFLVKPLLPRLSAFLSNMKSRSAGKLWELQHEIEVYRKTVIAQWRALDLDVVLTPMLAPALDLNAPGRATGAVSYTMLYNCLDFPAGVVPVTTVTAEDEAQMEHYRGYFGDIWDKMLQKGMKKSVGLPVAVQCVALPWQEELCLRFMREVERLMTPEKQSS
row,SMILES,IC50 [nM]
1,"Cc1ccccc1NC(=O)N1CCN(Cc2cnc3ccccc3c2)CC1 [Example 103, 4-Quinolin-3-ylmethyl-piperazine-1-carboxylic acid o-tolylamide]",6000
2,"C=Cc1cccc(CN2CCN(C(=O)Nc3ccccc3)CC2)c1 [Example 37, 4-(3-Vinyl-benzyl)-piperazine-1-carboxylic acid phenylamide]",590
3,"O=C(Nc1ccccc1)N1CCN(Cc2cccc(Oc3cccc(Cl)c3)c2)CC1 [Example 130, 4-[3-(3-Chloro-phenoxy)-benzyl]-piperazine-1-carboxylic acid phenylamide]",160
4,"COc1ccccc1NC(=O)N1CCN(Cc2ccc(Br)c(Br)c2)CC1 [Example 91, 4-(3,4-Dibromo-benzyl)-piperazine-1-carboxylic acid (2-methoxy-phenyl)-amide]",130
5,"Cc1cccc(CN2CCN(C(=O)Nc3ccccc3)CC2)c1 [Example 42, 4-(3-Methyl-benzyl)-piperazine-1-carboxylic acid phenylamide]",2000
6,"O=C(Nc1ccccc1)N1CCN(Cc2ccc(OC3CCCCC3)cc2)CC1 [Example 119, 4-(4-Cyclohexyloxy-benzyl)-piperazine-1-carboxylic acid phenylamide]",1000
7,"O=C(Nc1ccccc1)N1CCN(Cc2ccccc2Br)CC1 [Example 84, 4-(2-Bromo-benzyl)-piperazine-1-carboxylic acid phenylamide]",2500
8,"O=C(Nc1ccccc1)N1CCN(Cc2csc3ccccc23)CC1 [Example 31, 4-Benzo[b]thiophen-3-ylmethyl-piperazine-1-carboxylic acid phenylamide]",200
9,"CCc1ccc(CN2CCN(C(=O)Nc3ccccc3)CC2)cc1 [Example 33, 4-(4-Ethyl-benzyl)-piperazine-1-carboxylic acid phenylamide]",280
10,"COc1ccc(NC(=O)N2CCN(Cc3cnc4ccccc4c3)CC2)cc1 [Example 108, 4-Quinolin-3-ylmethyl-piperazine-1-carboxylic acid (4-methoxy-phenyl)-amide]",270
11,"CN(C)CCCOc1cccc(CN2CCN(C(=O)Nc3ccccc3)CC2)c1 [Example 127, 4-[3-(3-Dimethylamino-propoxy)-benzyl]-piperazine-1-carboxylic acid phenylamide]",2000
12,"COc1ccc(CN2CCN(C(=O)Nc3ccccc3)CC2)cc1 [Example 36, 4-(4-Methoxy-benzyl)-piperazine-1-carboxylic acid phenylamide]",470
13,"O=C(Nc1ccccc1)N1CCN(Cc2ccccc2)CC1 [Example J, 4-Benzyl-piperazine-1-carboxylic acid phenylamide, reference compound]",2000
14,"CC(C)Oc1ccc(CN2CCN(C(=O)Nc3ccccc3)CC2)cc1 [Example 48, 4-(4-Isopropoxy-benzyl)-piperazine-1-carboxylic acid phenylamide]",3500
15,"COc1cccc(NC(=O)N2CCN(Cc3cnc4ccccc4c3)CC2)c1 [Example 110, 4-Quinolin-3-ylmethyl-piperazine-1-carboxylic acid (3-methoxy-phenyl)-amide]",200
16,"O=C(Nc1ccccc1)N1CCN(Cc2ccc(/C=C/c3ccccc3)cc2)CC1 [Example 81, 4-(4-Styryl-benzyl)-piperazine-1-carboxylic acid phenylamide]",6000
17,"O=C(Nc1ccc(Cl)cc1)N1CCN(Cc2cnc3ccccc3c2)CC1 [Example 101, 4-Quinolin-3-ylmethyl-piperazine-1-carboxylic acid (4-chloro-phenyl)-amide]",360
18,"Cc1cccc(NC(=O)N2CCN(Cc3cnc4ccccc4c3)CC2)c1 [Example 109, 4-Quinolin-3-ylmethyl-piperazine-1-carboxylic acid m-tolylamide]",200
19,"O=C(Nc1ccc(Cl)cc1)N1CCN(Cc2ccc(Br)c(Br)c2)CC1 [Example 95, 4-(3,4-Dibromo-benzyl)-piperazine-1-carboxylic acid (4-chloro-phenyl)-amide]",500
20,"O=C(Nc1ccccc1)N1CCC(Cc2ccccc2)CC1 [Example H, 4-Benzyl-piperidine-1-carboxylic acid phenylamide, reference compound]",270
21,"Cc1ccc(CN2CCN(C(=O)Nc3ccccc3)CC2)cc1C [Example D, 4-(3,4-Dimethyl-benzyl)-piperazine-1-carboxylic acid phenylamide, reference compound]",630
22,"O=C(Nc1ccccc1)N1CCN(Cc2cccc(Oc3cc(Cl)cc(Cl)c3)c2)CC1 [Example 78, 4-[3-(3,5-Dichloro-phenoxy)-benzyl]-piperazine-1-carboxylic acid phenylamide]",5000
23,"CCCOc1cccc(CN2CCN(C(=O)Nc3ccccc3)CC2)c1 [Example 120, 4-(3-Propoxy-benzyl)-piperazine-1-carboxylic acid phenylamide]",170

# These reach a lower IC50. Values come first.
row,IC50 [nM],SMILES
1,100,"O=C(Nc1ccc(F)cc1)N1CCN(Cc2ccc3ccccc3n2)CC1 [Example 58, 4-Quinolin-2-ylmethyl-piperazine-1-carboxylic acid (4-fluoro-phenyl)-amide]"
2,69,"CC(C)(C)c1ccc(Oc2cccc(CN3CCN(C(=O)Nc4ccccc4)CC3)c2)cc1 [Example 63, 4-[3-(4-tert-Butyl-phenoxy)-benzyl]-piperazine-1-carboxylic acid phenylamide]"
3,19,"O=C(Nc1cccc(F)c1)N1CCN(Cc2ccc(Br)c(Br)c2)CC1 [Example 85, 4-(3,4-Dibromo-benzyl)-piperazine-1-carboxylic acid (3-fluoro-phenyl)-amide]"
4,73,"O=C(Nc1ccccc1)N1CCN(Cc2cnc3ccccc3c2)CC1 [Example 23, 4-Quinolin-3-ylmethyl-piperazine-1-carboxylic acid phenylamide]"
5,9,"COc1ccc(Oc2cccc(CN3CCN(C(=O)Nc4ccccc4)CC3)c2)cc1 [Example 65, 4-[3-(4-Methoxy-phenoxy)-benzyl]-piperazine-1-carboxylic acid phenylamide]"
6,27,"O=C(Nc1cccnc1)N1CCN(Cc2ccc(Br)c(Br)c2)CC1 [Example 118, 4-(3,4-Dibromo-benzyl)-piperazine-1-carboxylic acid pyridin-3-ylamide]"
7,120,"O=C(Nc1ccccc1)N1CCN(Cc2ccc(F)c(Br)c2)CC1 [Example 29, 4-(3-Bromo-4-fluoro-benzyl)-piperazine-1-carboxylic acid phenylamide]"
8,110,"O=C(Nc1ccccc1)N1CCN(Cc2cccc(S(=O)(=O)c3ccc(Cl)cc3)c2)CC1 [Example 72, 4-[3-(4-Chloro-benzenesulfonyl)-benzyl]-piperazine-1-carboxylic acid phenylamide]"
9,120,"O=C(Nc1cccc(F)c1)N1CCN(Cc2cnc3ccccc3c2)CC1 [Example 97, 4-Quinolin-3-ylmethyl-piperazine-1-carboxylic acid (3-fluoro-phenyl)-amide]"
10,80,"O=C(Nc1ccccc1)N1CCN(Cc2ccc(Cl)c(C(F)(F)F)c2)CC1 [Example 82, 4-(4-Chloro-3-trifluoromethyl-benzyl)-piperazine-1-carboxylic acid phenylamide]"
11,22,"O=C(Nc1ccccc1F)N1CCN(Cc2ccc(Br)c(Br)c2)CC1 [Example 89, 4-(3,4-Dibromo-benzyl)-piperazine-1-carboxylic acid (2-fluoro-phenyl)-amide]"
